Measurements taken from patent US8648086B2, “5,6-bicyclic heteroaryl-containing urea compounds as kinase inhibitors” (Ascepion Pharmaceuticals, Inc., priority 2009, dated 2014).

What was measured:
[1] = test system: MKN-45 human gastric cancer cells; assay: In vivo anti-tumor efficacy, MKN-45 xenograft; conditions: Gastric cancer MKN-45, nu/nu Balb/c mice
Protocol: Female (nu/nu) Balb/c athymic mice at 4-6 weeks of age were injected subcutaneously (s.c.) with MDA-MB-231 human breast cancer cells, A549 human non-small cell lung cancer cells, U87-MG human glioblastoma cells, PC-3 human prostate cancer cells, HT-29 human colon cancer, BEL-7404 human hepatocellular carcinoma, or MKN-45 human gastric cancer cells (ATCC, 5×10^6 cells suspended in 100 μl DMEM medium). Treatment was initiated after the tumor mass grown from s.c. implanted tumor cells reached a median volume of 200-400 mm^3. Mice were randomized into groups with three in each group for small-sample efficacy tests such that the median tumor volume is nearly equal among all groups. For large-sample efficacy tests, mice were randomized into groups with thirteen or fourteen in each group. Each group was treated either with compounds (dissolved in 2:1 mixture of PEG400 and 0.01N HCl (v/v)) or without compounds (vehicle only, 2:1 mixture of PEG400 and 0.01N HCl (v/v)) once per day at dose 12.5, 25, 50 or 100 mg/kg by oral gavage. Tumor volumes were assessed at least twice weekly by caliper measurement from the start of treatment. Tumor volume was calculated using the formula ½×L×W^2 (L: length of tumor's long axis, W: length of tumor's short axis). Treatment was applied for at least two weeks or until the tumor volume reaches a size of ˜2500 mm^3 or greater. Mice were humanly sacrificed after the experiment. The efficacy of compounds in reducing tumor growth was assessed by the index Tumor Growth Inhibition (TGI). TGI for a given treatment period was calculated using the group mean tumor volumes according to the formula: TGI=100×(VVehicle—group−VTreatment—group)÷VVehicle—group wherein VVehicle—group represents the mean tumor volume for the group treated with vehicle and VTreatment—group represents the mean tumor volume of the group treated with a compound.

VEGFR2 = biological target: T1, VEGFR2 (Homo sapiens, UniProt P35968); assay: VEGFR2 cell-based assay (phospho-VEGFR2 ELISA, transfected CHO cells); conditions: compound at 100 nM, read-out: % VEGFR2 kinase activity remains
T1 construct: expressed in transfected cells; host or cells: CHO cells, pcDNA3.1 plasmid
T1 sequence (P35968 20-1356, species assumed): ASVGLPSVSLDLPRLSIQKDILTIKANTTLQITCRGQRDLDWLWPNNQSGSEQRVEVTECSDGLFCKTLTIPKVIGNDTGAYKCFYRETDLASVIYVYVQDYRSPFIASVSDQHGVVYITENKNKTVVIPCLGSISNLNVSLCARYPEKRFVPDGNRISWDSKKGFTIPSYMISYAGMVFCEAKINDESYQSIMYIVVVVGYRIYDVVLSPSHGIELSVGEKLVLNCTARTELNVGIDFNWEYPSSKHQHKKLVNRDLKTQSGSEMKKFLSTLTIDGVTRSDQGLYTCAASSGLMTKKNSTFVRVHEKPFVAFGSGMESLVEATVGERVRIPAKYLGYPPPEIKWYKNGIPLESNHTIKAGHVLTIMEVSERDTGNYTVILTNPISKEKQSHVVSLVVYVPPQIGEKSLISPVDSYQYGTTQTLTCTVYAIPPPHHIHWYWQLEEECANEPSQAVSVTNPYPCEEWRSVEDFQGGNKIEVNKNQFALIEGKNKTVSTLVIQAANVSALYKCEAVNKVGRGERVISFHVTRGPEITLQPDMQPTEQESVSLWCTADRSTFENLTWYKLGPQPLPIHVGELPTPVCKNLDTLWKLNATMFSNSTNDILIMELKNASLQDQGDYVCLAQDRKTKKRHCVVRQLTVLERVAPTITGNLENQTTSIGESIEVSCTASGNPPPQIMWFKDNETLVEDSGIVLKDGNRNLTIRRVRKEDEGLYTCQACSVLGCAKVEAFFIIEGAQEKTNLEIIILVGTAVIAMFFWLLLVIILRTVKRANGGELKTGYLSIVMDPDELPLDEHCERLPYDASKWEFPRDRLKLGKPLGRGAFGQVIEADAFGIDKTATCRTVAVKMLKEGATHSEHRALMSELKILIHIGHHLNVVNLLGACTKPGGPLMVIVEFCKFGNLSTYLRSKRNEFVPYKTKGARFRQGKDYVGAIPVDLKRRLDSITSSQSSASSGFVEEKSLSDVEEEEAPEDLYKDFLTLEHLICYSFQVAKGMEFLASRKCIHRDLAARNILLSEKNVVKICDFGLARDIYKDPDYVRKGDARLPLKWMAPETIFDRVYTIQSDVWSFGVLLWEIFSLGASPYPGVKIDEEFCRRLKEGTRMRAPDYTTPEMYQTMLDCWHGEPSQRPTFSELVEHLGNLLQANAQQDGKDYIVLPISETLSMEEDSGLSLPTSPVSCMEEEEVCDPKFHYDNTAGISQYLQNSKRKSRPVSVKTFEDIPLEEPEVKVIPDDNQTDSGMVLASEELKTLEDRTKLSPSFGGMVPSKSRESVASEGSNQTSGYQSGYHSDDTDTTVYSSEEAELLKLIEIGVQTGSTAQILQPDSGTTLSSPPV
Outline: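 Serum-starved CHO cells transfected with full-length VEGFR2 treated 2 h with compound (0.5–500 nM), then stimulated with 20% FBS. Lysates analyzed by ELISA for phospho- and total VEGFR2 using streptavidin-HRP chemiluminescence.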

[2] = test system: BEL-7404 human hepatocellular carcinoma; assay: In vivo anti-tumor efficacy, BEL-7404 xenograft; conditions: Liver cancer BEL-7404, nu/nu Balb/c mice, 50 mg/kg oral once per day, n = 2 × 3
Protocol: Female (nu/nu) Balb/c athymic mice at 4-6 weeks of age were injected subcutaneously (s.c.) with MDA-MB-231 human breast cancer cells, A549 human non-small cell lung cancer cells, U87-MG human glioblastoma cells, PC-3 human prostate cancer cells, HT-29 human colon cancer, BEL-7404 human hepatocellular carcinoma, or MKN-45 human gastric cancer cells (ATCC, 5×10^6 cells suspended in 100 μl DMEM medium). Treatment was initiated after the tumor mass grown from s.c. implanted tumor cells reached a median volume of 200-400 mm^3. Mice were randomized into groups with three in each group for small-sample efficacy tests such that the median tumor volume is nearly equal among all groups. […] Tumor volumes were assessed at least twice weekly by caliper measurement from the start of treatment. Tumor volume was calculated using the formula ½×L×W^2 (L: length of tumor's long axis, W: length of tumor's short axis). […]
The efficacy of compounds in reducing tumor growth was assessed by the index Tumor Growth Inhibition (TGI). TGI for a given treatment period was calculated using the group mean tumor volumes according to the formula: TGI=100×(VVehicle—group−VTreatment—group)÷VVehicle—group wherein VVehicle—group represents the mean tumor volume for the group treated with vehicle and VTreatment—group represents the mean tumor volume of the group treated with a compound.

CSF-1R = biological target: T2, CSF-1R (Homo sapiens, UniProt P07333); assay: KINOMEscan competition binding assay, CSF-1R; conditions: compound at 100 nM; lower number indicates stronger hit
T2 construct: purchased KINOMEscan service (Ambit Biosciences, San Diego)
T2 sequence (P07333 20-972): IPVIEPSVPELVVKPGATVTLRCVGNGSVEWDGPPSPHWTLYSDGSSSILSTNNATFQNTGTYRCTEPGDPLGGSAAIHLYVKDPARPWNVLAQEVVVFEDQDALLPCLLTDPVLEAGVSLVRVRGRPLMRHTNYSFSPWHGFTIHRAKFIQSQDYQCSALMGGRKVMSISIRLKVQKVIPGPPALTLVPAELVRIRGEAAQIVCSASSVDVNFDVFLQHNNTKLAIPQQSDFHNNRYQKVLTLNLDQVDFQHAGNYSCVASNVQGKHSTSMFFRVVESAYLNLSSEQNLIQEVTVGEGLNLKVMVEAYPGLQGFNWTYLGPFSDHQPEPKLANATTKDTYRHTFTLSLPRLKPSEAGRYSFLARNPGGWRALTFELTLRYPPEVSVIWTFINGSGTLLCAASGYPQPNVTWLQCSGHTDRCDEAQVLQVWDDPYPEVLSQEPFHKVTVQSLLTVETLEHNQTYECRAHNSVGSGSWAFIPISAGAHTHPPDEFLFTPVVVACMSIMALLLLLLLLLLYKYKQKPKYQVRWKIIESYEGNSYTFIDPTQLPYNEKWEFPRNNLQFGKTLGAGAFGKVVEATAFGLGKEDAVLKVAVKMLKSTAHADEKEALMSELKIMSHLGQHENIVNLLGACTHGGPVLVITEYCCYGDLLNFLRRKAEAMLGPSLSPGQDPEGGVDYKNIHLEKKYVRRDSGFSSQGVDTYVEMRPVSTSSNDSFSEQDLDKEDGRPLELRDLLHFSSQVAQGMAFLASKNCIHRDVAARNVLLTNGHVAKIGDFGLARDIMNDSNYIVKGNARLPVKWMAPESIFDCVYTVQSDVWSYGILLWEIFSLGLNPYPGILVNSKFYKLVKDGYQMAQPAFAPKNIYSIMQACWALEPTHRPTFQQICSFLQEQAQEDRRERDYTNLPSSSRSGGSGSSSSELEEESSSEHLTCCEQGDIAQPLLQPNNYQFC
Protocol: (§1) A standard competition binding assay can be used to test the ability of a compound of this invention on competing with both intended and unintended kinases in vitro. To screen a compound against a large number of human kinases, a competition binding assay with an active-site dependent binding technology was performed by KINOMEscan service (Ambit Biosciences, San Diego, Cal., USA). Three components were combined in this assay—DNA-tagged kinase, immobilized ligand, and the test compound. The ability of the test compound to compete with the immobilized ligand was measured by quantitative PCR of the DNA of the DNA tag. A number of the compounds of this invention were screened at the concentration of 100 nM by this binding assay, and the results were reported as “% Ctrl,” and the lower number indicates stronger “hit” in this matrix.

c-Kit = biological target: T3, c-Kit (Homo sapiens, UniProt P10721); assay: KINOMEscan competition binding assay, c-Kit; conditions: compound at 100 nM; lower number indicates stronger hit
T3 construct: purchased KINOMEscan service (Ambit Biosciences, San Diego)
T3 sequence (P10721 26-976): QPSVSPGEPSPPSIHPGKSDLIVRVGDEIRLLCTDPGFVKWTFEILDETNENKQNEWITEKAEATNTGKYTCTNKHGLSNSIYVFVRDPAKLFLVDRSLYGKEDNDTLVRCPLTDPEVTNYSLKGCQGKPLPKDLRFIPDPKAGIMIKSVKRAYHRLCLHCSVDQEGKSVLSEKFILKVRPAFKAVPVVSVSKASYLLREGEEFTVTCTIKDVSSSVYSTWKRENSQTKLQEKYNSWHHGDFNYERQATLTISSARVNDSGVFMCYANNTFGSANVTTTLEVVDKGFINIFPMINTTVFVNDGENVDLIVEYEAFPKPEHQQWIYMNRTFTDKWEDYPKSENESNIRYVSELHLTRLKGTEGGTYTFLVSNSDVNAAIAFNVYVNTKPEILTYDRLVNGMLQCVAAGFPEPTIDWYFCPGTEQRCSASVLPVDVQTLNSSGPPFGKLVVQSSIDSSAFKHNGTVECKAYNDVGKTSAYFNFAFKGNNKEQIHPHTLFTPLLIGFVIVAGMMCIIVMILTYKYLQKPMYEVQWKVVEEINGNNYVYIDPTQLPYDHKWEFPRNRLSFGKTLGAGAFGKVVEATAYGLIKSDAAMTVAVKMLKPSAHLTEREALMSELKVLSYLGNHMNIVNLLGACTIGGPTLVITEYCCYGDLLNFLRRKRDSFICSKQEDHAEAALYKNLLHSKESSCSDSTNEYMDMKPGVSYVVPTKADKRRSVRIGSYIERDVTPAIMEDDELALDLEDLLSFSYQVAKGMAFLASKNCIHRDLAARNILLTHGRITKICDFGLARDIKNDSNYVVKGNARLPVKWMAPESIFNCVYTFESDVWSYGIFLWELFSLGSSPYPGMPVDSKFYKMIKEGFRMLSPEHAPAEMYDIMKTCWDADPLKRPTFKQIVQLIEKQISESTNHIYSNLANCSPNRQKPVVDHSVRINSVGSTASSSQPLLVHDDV
Protocol: as §1

remaining activity at 0.1 µM (VEGFR2) [%]	CSF-1R % Ctrl (CSF-1R) [% Ctrl]	c-Kit % Ctrl (c-Kit) [% Ctrl]	SMILES	Tumor Growth Inhibition (TGI) ([1]; 50 mg/kg oral once per day, n = 2 × 3)	Tumor Growth Inhibition (TGI) [2]	Tumor Growth Inhibition (TGI) ([1]; 12.5 mg/kg oral once per day, n = 6 × 13)	Tumor Growth Inhibition (TGI) ([1]; 25 mg/kg oral once per day, n = 6 × 13)	Tumor Growth Inhibition (TGI) ([1]; 50 mg/kg oral once per day, n = 3 × 3)	Tumor Growth Inhibition (TGI) ([1]; 50 mg/kg oral once per day, n = 6 × 13)	Tumor Growth Inhibition (TGI) ([1]; 100 mg/kg oral once per day, n = 6 × 13)
< 70			Cl.O=C(Nc1cccc(C(F)(F)F)c1)Nc1cccc2c1ccn2Cc1ccnc2[nH]ccc12 [Example 51, 1-(3-Trifluoromethylphenyl)-3-[1-(1H-pyrrolo[2,3-b]pyridin-4-ylmethyl)-1H-indol-4-yl]urea hydrochloride]	A (the TGI is greater or equal to 50%)						
≥ 70	3.4	3.8	Cl.O=C(Nc1cc(Cl)ccc1F)Nc1cccc2c1ccn2Cc1ccnc2[nH]ccc12 [Example 56, 1-(2-Fluoro-5-chlorophenyl)-3-[1-(1H-pyrrolo[2,3-b]pyridin-4-ylmethyl)-1H-indol-4-yl]urea hydrochloride]		A (the TGI is greater or equal to 50%)	B (the TGI for the compound of this invention is between 0% and 50%)	A (the TGI is greater or equal to 50%)	A (the TGI is greater or equal to 50%)	A (the TGI is greater or equal to 50%)	A (the TGI is greater or equal to 50%)
